Several values for one entry are separate records, joined by “and”; a condition that tells them apart may be missing. Equal values may be shown once. Read-outs that look alike come from different tables or passages of the source.
Tests used:
[1] = molecular target: T1, delta opioid receptor (CHO-hδ cell membranes) (Homo sapiens, UniProt P41143); experiment: Delta Opioid Receptor Functional Assay: [35S]GTPγS Binding in CHO-hδ Cell Membranes, Version 1; assay type: biochemical; conditions: read-out: DOR GTP-binding Assay_v1 EC50
T1 construct: purchased Receptor Biology, Inc. (Baltimore, Md.); host or cells: CHO cells (recombinant expression)
Description: CHO-hδ cell membranes were purchased from Receptor Biology, Inc. (Baltimore, Md.). 10 mg/ml of membrane protein suspended in 10 mM TRIS-HC pH 7.2, 2 mM EDTA, 10% sucrose.
Membranes were maintained at 4-8° C. A portion (1 ml) of membranes was added into 15 mL cold binding assay buffer. The assay buffer contained 50 mM HEPES, pH 7.6, 5 mM MgCl2, 100 mM NaCl, 1 mM DTT and 1 mM EDTA. The membrane suspension was homogenized with a Polytron for 2 times and centrifuged at 3000 rpm for 10 min. The supernent was then centrifuged at 18,000 rpm for 20 min. The pellet was saved in a tube and 10 ml assay buffer was added into the tube. The pellet and buffer were mixed with a Polytron.
The pellet membranes (20 μg/ml) were preincubated with SPA (10 mg/ml) at 25° C. for 45 min in the assay buffer. The SPA (5 mg/ml) coupled with membranes (10 μg/ml) was then incubated with 0.5 nM [^35S]GTPγS in the same HEPES buffer containing 50 μM GDP in total volume of 200 μl. Increasing concentrations of receptor agonists were used to stimulate [^35S]GTPγS binding. The basal binding was tested in the absent agonists and no specific binding was tested in the present 10 μM unlabeled GTPγS. The data were analyzed on a Top counter.
Data The % of Basal=(stimulate−non specific)*100/(basal−non specific). EC50 values were calculated using a Prism program.

[2] = test system: novel environment-stressed mice; experiment: In Vivo Assay-Stress-Induced Fecal Output (Fecal Output for 1 hr); design: species or system mouse; conditions: 1 hr; for Fecal Output (# pellets) cpd: novel environment-stressed mice; for response vs control in vivo at 10 mg/kg / response vs control in vivo at 30 mg/kg: Mus musculus, po, 1 h
Summary of the method: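 Adult male Crl:CD-1(ICR) mice (˜30-35 g; at least 10 per dose group) were split into acclimated non-stressed controls, held individually for 16-18 hr in wire-mesh-bottom cages, and non-acclimated stressed groups. Mice were dosed intragastrically with vehicle or test compound in 0.5% methylcellulose, housed individually in novel cages over absorbent cardboard, and fecal pellets per mouse were counted hourly.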

[3] = test system: male CD-1 mice; experiment: In Vivo Assay: Upper GI Tract Transit (MUGIT); conditions: Mus musculus, po, 1 h, dose 30 (mg), p.o., read-out: upper GI transit (% ctrl)
Description: Methods: The animals used in these studies were male CD-1 mice, ave. wt. ˜30 g. Mice were housed under 12 h/12 h light/dark cycle, food & water ad lib. On the day of the experiment mice were assigned to experimental groups, including one vehicle-only group (=control). At 30 min before administration of carmine dye, animals were dosed with vehicle or vehicle-plus-compound, mice were returned to their home cages after drug administration. After administration of carmine, the animals were either returned to their home cages (non-stressed) or individually placed in the same metal cages as used in the fecal output or entire GI tract transit to induce a novel environment stress. One hour after administration of carmine, mice were sacrificed by cervical dislocation, the abdomen opened midventrally, the small intestine from pylorus to cecum was removed, the mesentery divided in order to lay the intestine straight & flat—without stretching. The total length of intestine and the length of carmine-dyed intestine were measured in order to determine the percent of the upper GI tract over which transit had occurred as follows: {(Length of carmine-dyed intestine)/(Total length of intestine)}×100=% upper GI transit. The data expressed were group means±SD (or s.e.m.) and data expressed as % of control.

[4] = 10 mg/kg oral, relative to acclimated control, read-out: Fecal Output cpd % control
[5] = 10 mg/kg oral, relative to novel environment stress (NES) vehicle group, read-out: Fecal Output cpd % NES
[6] = 30 mg/kg oral, relative to acclimated control, read-out: Fecal Output cpd % control
[7] = 30 mg/kg oral, relative to novel environment stress (NES) vehicle group, read-out: Fecal Output cpd % NES

T1 sequence (P41143 whole entry): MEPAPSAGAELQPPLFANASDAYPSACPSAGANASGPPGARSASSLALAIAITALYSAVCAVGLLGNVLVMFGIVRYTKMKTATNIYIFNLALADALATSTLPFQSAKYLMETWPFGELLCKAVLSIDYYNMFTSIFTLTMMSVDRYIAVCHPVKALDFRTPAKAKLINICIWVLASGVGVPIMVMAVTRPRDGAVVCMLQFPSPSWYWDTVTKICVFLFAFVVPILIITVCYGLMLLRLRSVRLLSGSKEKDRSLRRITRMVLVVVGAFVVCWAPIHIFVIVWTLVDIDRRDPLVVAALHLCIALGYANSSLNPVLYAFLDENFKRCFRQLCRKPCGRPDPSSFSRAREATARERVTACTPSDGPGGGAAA

CCN(C(=O)[C@@H](N)Cc1ccc(O)cc1)[C@@H](C)c1nc(-c2ccccc2)c[nH]1 [Cpd 215] was tested, and the EC50 [1] was 1060 nM.

Compound Cc1cc(O)cc(C)c1C[C@H](N)C(=O)N(Cc1nc(-c2ccccc2)c[nH]1)C1CCCCC1 [Cpd 190] has an EC50 [1] of 3830 nM.

For Cc1cc(O)cc(C)c1C[C@H](N)C(=O)N(Cc1nc(-c2ccccc2)c[nH]1)C(C)C [Cpd 194], the EC50 [1] was 189 nM, the “Fecal Output (# pellets) cpd” value ([2]; 10 mg/kg oral) was 11.8 pellets and the response vs control in vivo at 10 mg/kg [2, 4] was 218%. It also gave a response vs control in vivo at 10 mg/kg [2, 5] of 94.4%.

CCN(C(=O)[C@@H](N)Cc1c(C)cc(O)cc1C)[C@H](C)c1nc(-c2ccccc2)c[nH]1 [Cpd 217] was tested, and the EC50 [1] was 82 nM.

With Cc1cc(O)cc(C)c1C[C@H](N)C(=O)N(Cc1cccc(C(=O)O)c1)[C@@H](C)c1nc(-c2ccccc2)c[nH]1 [Cpd 48] the response vs control in vivo at 30 mg [3] was 102%.

In the case of Cc1cc(O)cc(C)c1C[C@H](N)C(=O)N(Cc1nc(-c2ccccc2)c(C)[nH]1)C(C)C [Cpd 166], the EC50 [1] is reported as 21 nM and 71 nM.

CC(C)N(C(=O)[C@@H](N)Cc1ccc(O)cc1)[C@@H](C)c1nc(-c2ccccc2)c[nH]1 [Cpd 225] was tested, and the EC50 [1] was 2190 nM, the “Fecal Output (# pellets) cpd” value ([2]; 30 mg/kg oral) was 7.3 pellets and the response vs control in vivo at 30 mg/kg [2, 6] was 235%. The response vs control in vivo at 30 mg/kg [2, 7] was 152%.

Cc1cc(O)cc(C)c1C[C@H](N)C(=O)N(Cc1nc(-c2cc(C(F)(F)F)cc(C(F)(F)F)c2)c(C)[nH]1)C(C)C [Cpd 164] gave an EC50 [1] of 2500 nM.

C[C@H](c1nc(-c2ccccc2)c[nH]1)N(Cc1ccccc1)C(=O)[C@@H](N)Cc1ccc(O)cc1 [Cpd 221] was tested, and the EC50 [1] was 308 nM.

With Cc1cc(O)cc(C)c1C[C@H](N)C(=O)N(Cc1nc(-c2ccccc2)c[nH]1)CC1CC1 [Cpd 192] the EC50 [1] was 76 nM, the “Fecal Output (# pellets) cpd” value ([2]; 10 mg/kg oral) was 10.5 pellets and the response vs control in vivo at 10 mg/kg [2, 4] was 194%. It also gave a response vs control in vivo at 10 mg/kg [2, 5] of 84%.

Cc1cc(O)cc(C)c1C[C@H](N)C(=O)N(C)[C@H](C)c1nc(-c2ccccc2)c[nH]1 [Cpd 206] was tested, and the EC50 [1] was 37 nM, the “Fecal Output (# pellets) cpd” value ([2]; 10 mg/kg oral) was 8.6 pellets and the response vs control in vivo at 10 mg/kg [2, 4] was 226%. The response vs control in vivo at 10 mg/kg [2, 5] was 65.6%.

For Cc1cc(O)cc(C)c1C[C@H](N)C(=O)N(C)[C@@H](C)c1nc(Cc2ccccc2)c[nH]1 [Cpd 205], the EC50 [1] was 32 nM, the “Fecal Output (# pellets) cpd” value ([2]; 30 mg/kg oral) was 2.3 pellets and the response vs control in vivo at 30 mg/kg [2, 6] was 70.7%. For the same compound, the response vs control in vivo at 30 mg/kg [2, 7] was 24.6%.

Work on C[C@H](c1nc(-c2ccccc2)c[nH]1)N(C)C(=O)[C@@H](N)Cc1ccc(C(N)=O)cc1 [Cpd 203] yielded an EC50 [1] of 515 nM.
